Tested on: mouse genes
Assay: Whole genome expression in blood of mice after 2AA (Affymetrix GeneChip)
Type: in vivo
Description: To identify how 2AA pre-exposure promotes host defense to better protect against P. aeruginosa infection, we carried out whole genome gene expression studies of mice for several experimental conditions using the mouse full-thickness skin thermal injury infection model, including naïve; BI alone; 2AA treatment alone; 2AA pretreatment plus BI. The mice were injected IP, as we were not yet aware of the improved benefit obtained with IV delivery. Whole blood was collected after 0, 6, 24, 96 and 192 hr post 2AA injection. Also, pretreated BI mice were exposed to 2AA at 1 and 4 days pre-BI, with blood samples collected 24 hr post-BI. The transcriptome profiles were then determined and compared, and genes with statistically significant differences in their expression levels between the samples were further analyzed by pair-wise comparison (see experimental design, section 2.2).
In experiments to determine if T-aminoacetophenone acts as an immunomodulator, eight 6-week old CD-1 male mice were treated intraperitonialy with 500 μl of a 20 mM solution of T-aminoacetophenone in 0.9% NaCl (aq). A control group of mice was administered only 0.9% NaCl. Blood was withdrawn from the mice at time points of 6 hours, 24 hours, 96 hours, and 192 hours, and RNA was extracted from each blood sample.
Mouse GeneChip™ arrays, manufactured by Affymetrix (Santa Clara, Calif.), were used to compare the profile of gene expression in the blood samples of mice. The biotin-labeled cRNA used to hybridize to the GeneChips was prepared from the RNA extracted from the blood samples according to the Affymetrix GeneChip Expression Analysis Technical Manual (Research Genetics, Huntsville, Ala.).
The expression profiles from treated and untreated mice were compared and an additional constraint of a minimum expression ratio of 1 was applied to control false positives to 5%. The gene list was clustered and the genes showing upregulation at any of the time points considered were selected. […] Most of the genes listed in the table function in immune response or host-pathogen interaction. The table includes several cytokines and their receptors, genes involved in immune cell proliferation, and calcium-binding proteins that have a role in downstream signaling.

[1] = 2AA pre-BI, blood 24 hr post-BI (FIG. 38)

CC(=O)c1ccccc1N [2AA, 2′-aminoacetophenone]
down-regulated genes in 2AA-treated BI samples [1]: 23 genes
up-regulated genes in 2AA-treated BI samples [1]: do not identify any up-regulated
Fold Change AF220015 Rpt-1; regulatory protein, T lymphocyte 1 (6 h after IP 2AA, blood): 2.3 fold
Fold Change AF237910 Membrane-spanning 4-domains, subfamily A (6 h after IP 2AA, blood): 2.8 fold
Fold Change AI323359 Csfmr, colony stimulating factor IR, regulator of myeloid cell proliferation (6 h after IP 2AA, blood): 2.3 fold
Fold Change AI462015 Nuclear factor of kappa light chain gene enhancer in B-cells inhibitor, alpha (6 h after IP 2AA, blood): 2.3 fold
Fold Change AI648846 Solute carrier family 6 (6 h after IP 2AA, blood): 10.1 fold
Fold Change AV026617 FBJ osteosarcoma oncogene (6 h after IP 2AA, blood): 15.0 fold
Fold Change AV229143 Interferon activated gene (202A) (6 h after IP 2AA, blood): 21.2 fold
Fold Change AV318494 Myeloid cell leukemia sequence 1 (6 h after IP 2AA, blood): 1.8 fold
Fold Change BB193024 Interferon-induced transmembrane protein-2 (6 h after IP 2AA, blood): 5.0 fold
Fold Change BB241535 Suppressor of cytokine signaling 3 (6 h after IP 2AA, blood): 4.9 fold
Fold Change BB769628 Colony stimulating factor 2 receptor, beta 1 (6 h after IP 2AA, blood): 14.9 fold
Fold Change BB784999 Triggering receptor expressed on myeloid cells 1 (6 h after IP 2AA, blood): 11.6 fold
Fold Change BB831725 Suppressor of cytokine signaling 3 (6 h after IP 2AA, blood): 20.8 fold
Fold Change BC003839 Myeloid cell leukemia sequence 1 (Mcl1) (6 h after IP 2AA, blood): 1.5 fold
Fold Change BC010291 Interferon-inducible protein (Cd225) (6 h after IP 2AA, blood): 1.3 fold
Fold Change BC011092 Chemokine (C-C) receptor 1 (6 h after IP 2AA, blood): 1.2 fold
Fold Change BC011437 IL-1β (6 h after IP 2AA, blood): 3.5 fold
Fold Change BC012653 Chemokine (C-X3-C) receptor 1 (6 h after IP 2AA, blood): 30.6 fold
Fold Change BC021916 EMAPI, cytokine activity (6 h after IP 2AA, blood): 1.7 fold
Fold Change BC022943 Lymphocyte cytosolic protein 1 (6 h after IP 2AA, blood): 2.0 fold
Fold Change BE285634 Interleukin-1 receptor accessory protein (6 h after IP 2AA, blood): 1.0 fold
Fold Change NM_008039 Receptor activity [formyl peptide receptor, related sequence 2] (Fpr-rs2) (6 h after IP 2AA, blood): 13.6 fold
Fold Change NM_008677 p40phox; intracellular signaling cascade neutrophil cytosolic factor 4 (Ncf4) (6 h after IP 2AA, blood): 1.1 fold
Fold Change NM_008879 Pls2, L-fimbrin, calcium ion binding lymphocyte cytosolic proteing 1 (Lep 1) (6 h after IP 2AA, blood): 20.4 fold
Fold Change NM_009883 Nuclear factor induced by IL-6 (NF-IL6) (6 h after IP 2AA, blood): 1.0 fold
Fold Change NM_011087 Paired-Ig-like receptor A1 (Piral) (6 h after IP 2AA, blood): 1.9 fold
Fold Change NM_011313 Cacy; calcium binding protein A6 (calcyclin)cyclin-dependent protein kinase (6 h after IP 2AA, blood): 5.7 fold
Fold Change NM_011315 Saa-3 lipid transported activity acute phase response (6 h after IP 2AA, blood): 4.7 fold
Fold Change NM_011355 PU.1, transcription factor complex cell growth and/or maintenance (6 h after IP 2AA, blood): 17.0 fold
Fold Change NM_011940 Interferon-activatable protein (Ifi202) (6 h after IP 2AA, blood): 29.8 fold
Fold Change NM_011999 DCIR; C-type (calcium dependent, carbohydrate recognition domain) lectin (6 h after IP 2AA, blood): 22.8 fold
Fold Change NM_030691 Integral to membrane immunoglobulin superfamily, member 6 (Igsf6) (6 h after IP 2AA, blood): 14.9 fold
Fold Change NM_030694 Interferon-induced transmembrane protein-3 (6 h after IP 2AA, blood): 4.7 fold
Fold Change U05264 Glycoprotein 49B (Gp49b) (6 h after IP 2AA, blood): 4.7 fold
Fold Change U72644 Leukocyte specific transcript 1 (6 h after IP 2AA, blood): 1.6 fold
Fold Change X14607 Lipocalin 2 (6 h after IP 2AA, blood): 13.9 fold
additional genes upregulated (higher cutoff, Table 4) (6 hours after 2′-aminoacetophenone): 10 genes
Fold Change AF220015 Rpt-1; regulatory protein, T lymphocyte 1 (24 h after IP 2AA, blood): 0.6 fold
Fold Change AF237910 Membrane-spanning 4-domains, subfamily A (24 h after IP 2AA, blood): 0.5 fold
Fold Change AI323359 Csfmr, colony stimulating factor IR, regulator of myeloid cell proliferation (24 h after IP 2AA, blood): 0.7 fold
Fold Change AI462015 Nuclear factor of kappa light chain gene enhancer in B-cells inhibitor, alpha (24 h after IP 2AA, blood): 0.4 fold
Fold Change AI648846 Solute carrier family 6 (24 h after IP 2AA, blood): 8.0 fold
Fold Change AV026617 FBJ osteosarcoma oncogene (24 h after IP 2AA, blood): 23.8 fold
Fold Change AV229143 Interferon activated gene (202A) (24 h after IP 2AA, blood): 10.9 fold
Fold Change AV318494 Myeloid cell leukemia sequence 1 (24 h after IP 2AA, blood): 1.1 fold
Fold Change BB193024 Interferon-induced transmembrane protein-2 (24 h after IP 2AA, blood): 1.0 fold
Fold Change BB241535 Suppressor of cytokine signaling 3 (24 h after IP 2AA, blood): 1.1 fold
Fold Change BB769628 Colony stimulating factor 2 receptor, beta 1 (24 h after IP 2AA, blood): 6.9 fold
Fold Change BB784999 Triggering receptor expressed on myeloid cells 1 (24 h after IP 2AA, blood): 5.9 fold
Fold Change BB831725 Suppressor of cytokine signaling 3 (24 h after IP 2AA, blood): 6.5 fold
Fold Change BC003839 Myeloid cell leukemia sequence 1 (Mcl1) (24 h after IP 2AA, blood): 0.0 fold
Fold Change BC010291 Interferon-inducible protein (Cd225) (24 h after IP 2AA, blood): 0.0 fold
Fold Change BC011092 Chemokine (C-C) receptor 1 (24 h after IP 2AA, blood): −0.9 fold
Fold Change BC011437 IL-1β (24 h after IP 2AA, blood): 0.6 fold
Fold Change BC012653 Chemokine (C-X3-C) receptor 1 (24 h after IP 2AA, blood): 11.6 fold
Fold Change BC021916 EMAPI, cytokine activity (24 h after IP 2AA, blood): 0.3 fold
Fold Change BC022943 Lymphocyte cytosolic protein 1 (24 h after IP 2AA, blood): 0.2 fold
Fold Change BE285634 Interleukin-1 receptor accessory protein (24 h after IP 2AA, blood): 0.2 fold
Fold Change NM_008039 Receptor activity [formyl peptide receptor, related sequence 2] (Fpr-rs2) (24 h after IP 2AA, blood): 0.6 fold
Fold Change NM_008677 p40phox; intracellular signaling cascade neutrophil cytosolic factor 4 (Ncf4) (24 h after IP 2AA, blood): 0.2 fold
Fold Change NM_008879 Pls2, L-fimbrin, calcium ion binding lymphocyte cytosolic proteing 1 (Lep 1) (24 h after IP 2AA, blood): 8.4 fold
Fold Change NM_009883 Nuclear factor induced by IL-6 (NF-IL6) (24 h after IP 2AA, blood): 0.3 fold
Fold Change NM_011087 Paired-Ig-like receptor A1 (Piral) (24 h after IP 2AA, blood): 0.9 fold
Fold Change NM_011313 Cacy; calcium binding protein A6 (calcyclin)cyclin-dependent protein kinase (24 h after IP 2AA, blood): 2.3 fold
Fold Change NM_011315 Saa-3 lipid transported activity acute phase response (24 h after IP 2AA, blood): 5.6 fold
Fold Change NM_011355 PU.1, transcription factor complex cell growth and/or maintenance (24 h after IP 2AA, blood): 0.0 fold
Fold Change NM_011940 Interferon-activatable protein (Ifi202) (24 h after IP 2AA, blood): 9.4 fold
Fold Change NM_011999 DCIR; C-type (calcium dependent, carbohydrate recognition domain) lectin (24 h after IP 2AA, blood): 8.0 fold
Fold Change NM_030691 Integral to membrane immunoglobulin superfamily, member 6 (Igsf6) (24 h after IP 2AA, blood): 3.5 fold
Fold Change NM_030694 Interferon-induced transmembrane protein-3 (24 h after IP 2AA, blood): 1.1 fold
Fold Change U05264 Glycoprotein 49B (Gp49b) (24 h after IP 2AA, blood): 1.0 fold
Fold Change U72644 Leukocyte specific transcript 1 (24 h after IP 2AA, blood): 0.9 fold
